Among the data in patent US20170275275A1, “BENZENESULFONAMIDES USEFUL AS SODIUM CHANNEL INHIBITORS” (PFIZER INC., priority 2014, published 2017) are inhibition and IC50 values, retold here.

Each structure is given as a SMILES string. pIC50: −log10 of the molar value. Counter-ions that a name gives are not always drawn.

The target of the first assay is T1, Nav1.7 (or SCN9A) channel (Homo sapiens, UniProt Q15858).
T1 construct: expressed in transfected cells
T1 sequence (Q15858 whole entry): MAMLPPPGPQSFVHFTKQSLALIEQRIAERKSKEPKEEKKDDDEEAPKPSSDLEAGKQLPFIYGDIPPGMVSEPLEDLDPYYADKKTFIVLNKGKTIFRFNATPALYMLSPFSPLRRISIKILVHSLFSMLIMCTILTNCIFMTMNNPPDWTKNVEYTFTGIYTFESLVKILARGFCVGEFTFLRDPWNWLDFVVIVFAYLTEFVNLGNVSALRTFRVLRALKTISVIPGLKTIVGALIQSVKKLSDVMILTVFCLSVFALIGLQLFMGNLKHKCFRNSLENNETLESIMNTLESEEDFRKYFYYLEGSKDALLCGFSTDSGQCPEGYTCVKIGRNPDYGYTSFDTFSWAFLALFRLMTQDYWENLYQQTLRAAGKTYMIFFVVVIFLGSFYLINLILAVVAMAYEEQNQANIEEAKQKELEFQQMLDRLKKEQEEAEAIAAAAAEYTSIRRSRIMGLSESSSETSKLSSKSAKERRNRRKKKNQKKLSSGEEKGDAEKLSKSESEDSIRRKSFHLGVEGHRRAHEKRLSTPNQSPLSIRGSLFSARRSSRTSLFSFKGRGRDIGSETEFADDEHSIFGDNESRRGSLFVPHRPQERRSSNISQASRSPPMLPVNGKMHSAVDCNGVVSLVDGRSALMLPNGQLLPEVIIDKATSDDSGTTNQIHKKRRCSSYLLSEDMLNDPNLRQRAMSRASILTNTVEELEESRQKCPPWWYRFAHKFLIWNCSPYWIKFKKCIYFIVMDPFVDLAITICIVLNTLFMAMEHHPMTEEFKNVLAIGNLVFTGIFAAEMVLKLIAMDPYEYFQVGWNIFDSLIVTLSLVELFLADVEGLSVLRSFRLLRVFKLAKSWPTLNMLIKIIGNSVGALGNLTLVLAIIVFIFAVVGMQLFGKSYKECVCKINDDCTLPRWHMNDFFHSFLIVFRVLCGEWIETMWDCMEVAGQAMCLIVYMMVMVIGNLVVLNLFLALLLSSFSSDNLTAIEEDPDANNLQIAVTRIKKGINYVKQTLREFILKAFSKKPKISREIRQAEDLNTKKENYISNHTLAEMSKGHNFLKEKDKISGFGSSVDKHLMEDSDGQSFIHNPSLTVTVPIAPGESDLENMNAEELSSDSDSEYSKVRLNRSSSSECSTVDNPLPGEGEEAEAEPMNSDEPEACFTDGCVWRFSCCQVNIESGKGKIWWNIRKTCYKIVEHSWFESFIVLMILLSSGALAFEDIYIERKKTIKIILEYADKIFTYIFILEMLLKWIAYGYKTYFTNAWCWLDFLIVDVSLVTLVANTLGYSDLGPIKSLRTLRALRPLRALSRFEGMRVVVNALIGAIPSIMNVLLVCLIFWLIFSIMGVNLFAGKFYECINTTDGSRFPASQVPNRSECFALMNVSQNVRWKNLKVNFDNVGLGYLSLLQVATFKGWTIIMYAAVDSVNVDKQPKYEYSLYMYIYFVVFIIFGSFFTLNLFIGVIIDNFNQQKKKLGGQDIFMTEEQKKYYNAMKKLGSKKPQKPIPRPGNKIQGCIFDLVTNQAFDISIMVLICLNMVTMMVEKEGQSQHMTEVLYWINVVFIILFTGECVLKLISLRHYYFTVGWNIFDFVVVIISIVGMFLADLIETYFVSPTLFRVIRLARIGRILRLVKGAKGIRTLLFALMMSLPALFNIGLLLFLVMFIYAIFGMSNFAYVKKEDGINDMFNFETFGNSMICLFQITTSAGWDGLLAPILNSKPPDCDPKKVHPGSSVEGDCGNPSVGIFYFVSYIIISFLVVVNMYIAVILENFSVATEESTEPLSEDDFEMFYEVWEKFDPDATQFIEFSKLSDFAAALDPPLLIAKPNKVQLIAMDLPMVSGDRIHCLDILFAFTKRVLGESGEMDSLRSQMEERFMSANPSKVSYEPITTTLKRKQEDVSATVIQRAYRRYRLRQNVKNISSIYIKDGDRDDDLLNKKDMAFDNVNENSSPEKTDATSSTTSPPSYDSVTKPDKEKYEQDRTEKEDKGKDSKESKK
Description: Nav1.7 (hSCN9A) channel block, PatchXpress (PX) whole-cell electrophysiology in stably transfected HEK cells. Conditions: HEK293; Nav1.7, PatchXpress, 30 nM; read-out: % inhibition at 30 nM dose. Type of assay: cell-based. The procedure: The ability of the compounds of formula (I) to block the Nav1.7 (or SCN9A) channel was measured using the assay described below.
Human Embryonic Kidney (HEK) cells were transfected with an hSCN9A construct using lipofectamine reagent (Invitrogen), using standard techniques. Cells stably expressing the hSCN9A constructs were identified by their resistance to G-418 (400 μg/ml). Clones were screened for expression using the whole-cell voltage-clamp technique.
HEK cells stably transfected with hSCN9A were maintained in DMEM medium supplemented with 10% heat-inactivated fetal bovine serum and 400 μg/ml G-418 in an incubator at 37° C. with a humidified atmosphere of 10% CO2. For HTS, cells were harvested from flasks by trypsinization and replated in an appropriate multi-well plate (typically 96 or 384 wells/plate) such that confluence would be achieved within 24 hours of plating. Cells were typically used for electrophysiological experiments within 24 to 72 hours after plating.
For conventional whole-cell voltage clamp experiments cells were removed from the culture flask by brief trypsinization and re-plated at low density onto glass cover slips. Cover slips containing HEK cells expressing hSCN9A were placed in a bath on the stage of an inverted microscope and perfused (approximately 1 ml/minutes) with extracellular solution of the following composition: 138 mM NaCl, 2 mM CaCl2, 5.4 mM KCl, 1 mM MgCl2, 10 mM glucose, and 10 mM HEPES, pH 7.4, with NaOH. […] The osmolarity of the extracellular and intracellular solutions was 300 mOsm/kg and 295 mOsm/kg, respectively. All recordings were made at room temperature (22-24° C.) using AXOPATCH 200B amplifiers and PCLAMP software (Axon Instruments, Burlingame, Calif.). hSCN9A currents in HEK cells were measured using the whole-cell configuration of the patch-clamp technique (Hamill et al., 1981). Uncompensated series resistance was typically 2 to 5 mega ohms and >85% series resistance compensation was routinely achieved. […] Current records were acquired at 20 to 50 KHz and filtered at 5 to 10 KHz.
HEK cells stably transfected with hSCN9A were viewed under Hoffman contrast optics and placed in front of an array of flow pipes emitting either control or compound-containing extracellular solutions.
The voltage-dependence of inactivation was determined by applying a series of depolarizing prepulses (8 sec long in 10 mV increments) from a negative holding potential. The voltage was then immediately stepped to 0 mV to assess the magnitude of the sodium current. Currents elicited at 0 mV were plotted as a function of prepulse potential to allow estimation of the voltage at which 50% of the channels were inactivated (midpoint of inactivation or V1/2). Compounds were tested for their ability to inhibit hSCN9A sodium channels by activating the channel with a 20 msec voltage step […] to 0 mV following an 8 second conditioning prepulse to the empirically determined V1/2. Compound effect (% inhibition) was determined by difference in current amplitude before and after application of test compounds. For ease of comparison, “estimated IC-50” (EIC50) values were calculated from single point electrophysiology data by the following equation, (tested concentration, nM)×(100-% inhibition/% inhibition). Inhibition values <20% and >80% were excluded from the calculation.
Electrophysiological assays were conducted with PatchXpress 7000 hardware and associated software (Molecular Devices Corp). All assay buffers and solutions were identical to those used in conventional whole-cell voltage clamp experiments described above. hSCN9A cells were grown as above to 50%-80% confluency and harvested by trypsinization. Trypsinized cells were washed and resuspended in extracellular buffer at a concentration of 1×10^6 cells/ml. The onboard liquid handling facility of the PatchXpress was used for dispensing cells and application of test compounds.
As for `O=S(=O)(Nc1cscn1)c1cc(Cl)c(Oc2ccc(-c3cccc(C(F)(F)F)c3)cc2-c2ccnc(CNCCC3CCNCC3)c2)cc1F` [Example 2, 5-Chloro-2-fluoro-4-{[3-(2-{[(2-piperidin-4-ylethyl)amino]methyl}pyridin-4-yl)-3′-(trifluoromethyl)biphenyl-4-yl]oxy}-N-1,3-thiazol-4-ylbenzenesulfonamide], the inhibition at 0.03 µM came to 10.7%.

The same assay, now with this note: estimated IC50 from single point electrophysiology data; PatchXpress platform; HEK cells expressing hSCN9A; clamped at V1/2 of inactivation; read-out: Nav1.7 EIC50.
For the compound `COCCOCCOCCOCCOCCOCCOCCOCCOCCOCCOCCOCCC(=O)N1CCC(CCNCc2cc(-c3cc(-c4cccc(C(F)(F)F)c4)ccc3Oc3cc(F)c(S(=O)(=O)Nc4cscn4)cc3Cl)ccn2)CC1` [Example 30, 5-chloro-2-fluoro-4-{[3-{2-[({2-[1-(38-oxo-2,5,8,11,14,17,20,23,26,29,32,35-dodecaoxaoctatriacontan-38-yl)piperidin-4-yl]ethyl}amino)methyl]pyridin-4-yl}-3′-(trifluoromethyl)biphenyl-4-yl]oxy}-N-(1,3-thiazol-4-yl)benzenesulfonamide hydrochloride salt], the pIC50 was 7.62.

As to `CC(=O)N1CCC(CCNCc2cc(-c3cc(-c4cccc(C(F)(F)F)c4)ccc3Oc3ccc(S(=O)(=O)Nc4ncns4)cc3C#N)ccn2)CC1` [Example 1, 4-({3-[2-({[2-(1-Acetylpiperidin-4-yl)ethyl]amino}methyl)pyridin-4-yl]-3′-(trifluoromethyl)biphenyl-4-yl}oxy)-3-cyano-N-1,2,4-thiadiazol-5-ylbenzenesulfonamide], the pIC50 was 8.24.

Consider `O=S(=O)(Nc1cscn1)c1cc(Cl)c(Oc2ccc(-c3cccc(C(F)(F)F)c3)cc2-c2ccnc(CNCCC3CCNCC3)c2)cc1F` [Example 2, 5-Chloro-2-fluoro-4-{[3-(2-{[(2-piperidin-4-ylethyl)amino]methyl}pyridin-4-yl)-3′-(trifluoromethyl)biphenyl-4-yl]oxy}-N-1,3-thiazol-4-ylbenzenesulfonamide], for which the pIC50 was < 7.52. On the same count and under the same terms, then `COCCOCCOCCOCCOCCOCCOCCOCCOCCOCCOCCOCCC(=O)NCc1cc(-c2cc(-c3cccc(C(F)(F)F)c3)ccc2Oc2cc(F)c(S(=O)(=O)Nc3cscn3)cc2Cl)ccn1` [Example 28, N-[(4-{4-[2-chloro-5-fluoro-4-(1,3-thiazol-4-ylsulfamoyl)phenoxy]-3′-(trifluoromethyl)biphenyl-3-yl}pyridin-2-yl)methyl]-2,5,8,11,14,17,20,23,26,29,32,35-dodecaoxaoctatriacontan-38-amide], with 6.62; and `COCCOCCOCCOCCOCCOCCOCCOCCOCCOCCOCCOCCC(=O)NCc1cc(-c2cc(-c3cccc(C(F)(F)F)c3)ccc2Oc2cc(F)c(S(=O)(=O)Nc3nncs3)cc2Cl)ccn1` [Example 27, N-[(4-{4-[2-chloro-5-fluoro-4-(1,3,4-thiadiazol-2-ylsulfamoyl)phenoxy]-3′-(trifluoromethyl)biphenyl-3-yl}pyridin-2-yl)methyl]-2,5,8,11,14,17,20,23,26,29,32,35-dodecaoxaoctatriacontan-38-amide], with 7.33; and `COCCOCCOCCOCCNC(=O)COCc1cc(-c2cc(-c3cccc(C(F)(F)F)c3)ccc2Oc2ccc(S(=O)(=O)Nc3ncns3)cc2C#N)ccn1` [Example 14, 2-((4-(4-(4-(N-(1,2,4-thiadiazol-5-yl)sulfamoyl)-2-cyanophenoxy)-3′-(trifluoromethyl)-[1,1′-biphenyl]-3-yl)pyridin-2-yl)methoxy)-N-(2,5,8,11-tetraoxatridecan-13-yl)acetamide], with 8.30. As for `COCCOCCOCCOCCOCCOCCOCCOCCOCCOCCOCCOCCC(=O)N1CCC(CCNCc2cccc(-c3cc(-c4ccccc4)ccc3Oc3ccc(S(=O)(=O)Nc4ncns4)cc3C#N)c2)CC1` [Example 31, 3-cyano-4-({3″-[({2-[1-(38-oxo-2,5,8,11,14,17,20,23,26,29,32,35-dodecaoxaoctatriacontan-38-yl)piperidin-4-yl]ethyl}amino)methyl]-1,1′:3′,1″-terphenyl-4′-yl}oxy)-N-(1,2,4-thiadiazol-5-yl)benzenesulfonamide], the pIC50 was 8.01. `N#Cc1cc(S(=O)(=O)Nc2ncns2)ccc1Oc1ccc(-c2ccccc2)cc1-c1cccc(C(=O)NCCN2CCNCC2)c1` [Example 3, 6′-{2-cyano-4-[(1,2,4-thiadiazol-5-ylamino)sulfonyl]phenoxy}-N-(2-piperazin-1-ylethyl)-1,1′:3′,1″-terphenyl-3-carboxamide]: the pIC50 is 9.00.
